Reference: ChEMBL document CHEMBL3244112, “Dipeptides of O-methyl-L-threonine as potential antimalarials” (J Med Chem, 1979)
Activity calls are given as the source filed them. The calls are words filed in the database; no cut-off is given here. Peptide text beside a SMILES is read from it.

Legend:
Mus musculus = assay: Toxicity in Plasmodium berghei infected mouse at <640 mg/kg; assay type: organism-based; conditions: in vivo
Plasmodium berghei [1] = assay: Antimalarial activity against Plasmodium berghei infected in mouse assessed as increase of survival time of host at 640 mg/kg; assay type: functional, organism-based; parameters: dose 640 mg/kg
Plasmodium berghei [2] = assay: Antimalarial activity against Plasmodium berghei infected in mouse assessed as increase of survival time of host; assay type: functional, organism-based
Plasmodium berghei [3] = assay: Antimalarial activity against Plasmodium berghei infected in mouse assessed as increase of survival time of host at 160 to 640 mg/kg; assay type: functional, organism-based

Row | SMILES | Activity (Mus musculus) | Activity (Plasmodium berghei [1]) | Activity (Plasmodium berghei [2]) | Activity (Plasmodium berghei [3])
1 | CO[C@H](C)[C@H](NC(=O)[C@@H](N)CC(C)C)C(=O)O (H-Leu-Thr(Me)-OH) | Non-toxic | inactive |  | 
2 | CC(C)C[C@H](N)C(=O)O [LEUCINE] | Non-toxic | inactive |  | 
3 | CO[C@H](C)[C@H](N)C(=O)N[C@H](C(=O)O)[C@@H](C)OC (H-Thr(Me)-Thr(Me)-OH) |  | Active | Active | 
4 | CO[C@H](C)[C@H](N)C(=O)O |  |  |  | Active
5 | CO[C@H](C)[C@H](N)C(=O)N[C@@H](CC(C)C)C(=O)O (H-Thr(Me)-Leu-OH) | Non-toxic | inactive |  | 
